Assay results published in US20220133842A1 (priority 2019, published 2022).
Like-named read-outs stand apart in the source and are kept apart here.

Tests used:
[1] = tested on: human or porcine epithelial cells

Row | Compound | intracellular accumulation [1] | Apical fraction (Caco-2 cells) [%] | Basal fraction (Caco-2 cells) [%] | Intracellular fraction (Caco-2 cells) [%] | Apical fraction (T84 cells) [%] | Basal fraction (T84 cells) [%] | Intracellular fraction (T84 cells) [%] | Apical fraction (IPEC-J2 cells) [%] | Basal fraction (IPEC-J2 cells) [%] | Intracellular fraction (IPEC-J2 cells) [%] | Apical fraction (Caco-2 cells; human) [%] | Basal fraction (Caco-2 cells; human) [%] | Intracellular fraction (Caco-2 cells; human) [%] | Apical fraction (T84 cells; human) [%] | Basal fraction (T84 cells; human) [%] | Intracellular fraction (T84 cells; human) [%] | Apical fraction (IPEC-J2 cells; pig) [%] | Basal fraction (IPEC-J2 cells; pig) [%] | Intracellular fraction (IPEC-J2 cells; pig) [%]
1 | CO/C1=C\C(C)=C\[C@@H](C)[C@@H](O)[C@@H](C)C/C(C)=C/C=C/[C@H](OC)[C@@H]([C@@H](C)[C@@H](O)[C@H](C)[C@@]2(O)C[C@@H](O)[C@H](C)[C@@H](C(C)C)O2)OC1=O [Bafilomycin A1] | 19.5-77.4 % of the initial dose | 0.1 | 22.5 | 77.4 | 2.5 | 30.5 | 68.0 | 0.1 | 28.1 | 71.8 |  |  |  |  |  |  |  |  | 
2 | Cc1ncc([N+](=O)[O-])n1CCO [Metronidazole] |  |  |  |  |  |  |  |  |  |  | 80.2 | 12.9 | 12.7 | 71.3 | 9.7 | 19.0 | 84.0 | 7.1 | 8.9
